Legend:
Assay in all cases: relative viability (nuclei count vs DMSO), 5 days (fraction); higher = more cells survive
[1] = system: CAL-12T
Outline: (§1)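 Lung cancer cell lines in 1536-well plates were dosed by pin tool the day after seeding, either with one drug alone or with a fixed anchor-drug dose plus five library-drug doses (not always all listed) in √10 steps. After 5 days, cells were fixed and their nuclei stained in one step (final 0.05% Triton X-100, 1% formaldehyde, 1 ug/ml Hoechst), then counted on 4× images. Relative viability is the nuclei count in treated wells divided by that in vehicle wells. Values are medians of duplicate plates.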

[2] = system: COR-L 105
Outline: as §1

[3] = system: H3255
Outline: as §1

[4] = system: HARA
Outline: as §1

[5] = system: HCC-15
Outline: as §1

[6] = system: HCC-366
Outline: as §1

[7] = system: LC-2-ad
Outline: as §1

[8] = system: LU99A
Outline: as §1

[9] = system: NCI-H1395
Outline: as §1

[10] = system: NCI-H1666
Outline: as §1

[11] = system: NCI-H1734
Outline: as §1

[12] = system: NCI-H1944
Outline: as §1

[13] = system: NCI-H1975
Outline: as §1

[14] = system: NCI-H1993
Outline: as §1

[15] = system: NCI-H2228
Outline: as §1

[16] = system: NCI-H3122
Outline: as §1

[17] = system: NCI-H520
Outline: as §1

[18] = system: NCI-H647
Outline: as §1

[19] = system: NCI-H661
Outline: as §1

[20] = system: NCI-H838
Outline: as §1

[21] = system: PC-14
Outline: as §1

[22] = system: PC-3 [JPC-3]
Outline: as §1

[23] = system: SK-LU-1
Outline: as §1

For Cc1cnc(-c2cnc(NCCNc3ccc(C#N)cn3)nc2-c2ccc(Cl)cc2Cl)[nH]1 + CS(=O)(=O)CCNCc1ccc(-c2ccc3ncnc(Nc4ccc(OCc5cccc(F)c5)c(Cl)c4)c3c2)o1 [Lapatinib] (partner 2 µM), the relative viability ([1]; first compound 0.253 µM) was 0.64, the relative viability ([1]; first compound 2.53 µM) was 0.627 and the relative viability ([2]; first compound 0.08 µM) was 0.397. For the same molecule, the relative viability ([2]; first compound 0.253 µM) was 0.348, the relative viability ([2]; first compound 0.8 µM) was 0.318 and the relative viability ([2]; first compound 2.53 µM) was 0.403. It also gave a relative viability ([3]; first compound 0.08 µM) of 0.28, a relative viability ([3]; first compound 0.253 µM) of 0.249 and a relative viability ([3]; first compound 0.8 µM) of 0.219. The relative viability ([3]; first compound 2.53 µM) was 0.244, the relative viability ([4]; first compound 0.08 µM) was 1.03 and the relative viability ([4]; first compound 0.253 µM) was 0.598. For the same molecule, the relative viability ([4]; first compound 0.8 µM) was 0.799, the relative viability ([4]; first compound 2.53 µM) was 0.607 and the relative viability ([5]; first compound 0.08 µM) was 0.813. For the same molecule, the relative viability ([5]; first compound 0.253 µM) was 0.577, the relative viability ([5]; first compound 0.8 µM) was 0.903 and the relative viability ([5]; first compound 2.53 µM) was 0.843. For the same molecule, the relative viability ([6]; first compound 0.08 µM) was 0.989, the relative viability ([6]; first compound 0.253 µM) was 0.951 and the relative viability ([6]; first compound 0.8 µM) was 1.08. For the same molecule, the relative viability ([6]; first compound 2.53 µM) was 0.935, the relative viability ([7]; first compound 0.08 µM) was 1.06 and the relative viability ([7]; first compound 0.8 µM) was 0.761. For the same molecule, the relative viability ([7]; first compound 2.53 µM) was 0.898, the relative viability ([8]; first compound 0.08 µM) was 1.06 and the relative viability ([8]; first compound 0.253 µM) was 0.879. It also gave a relative viability ([8]; first compound 0.8 µM) of 1.06, a relative viability ([8]; first compound 2.53 µM) of 1.04 and a relative viability ([9]; first compound 0.08 µM) of 1.04. It also gave a relative viability ([9]; first compound 0.253 µM) of 0.776, a relative viability ([9]; first compound 0.8 µM) of 1.07 and a relative viability ([9]; first compound 2.53 µM) of 0.94. For the same molecule, the relative viability ([10]; first compound 0.08 µM) was 0.768, the relative viability ([10]; first compound 0.253 µM) was 0.554 and the relative viability ([10]; first compound 0.8 µM) was 0.595. The relative viability ([10]; first compound 2.53 µM) was 0.62, the relative viability ([11]; first compound 0.08 µM) was 1.13 and the relative viability ([11]; first compound 0.253 µM) was 0.901. The relative viability ([11]; first compound 0.8 µM) was 0.882, the relative viability ([11]; first compound 2.53 µM) was 1.05 and the relative viability ([12]; first compound 0.08 µM) was 0.858. It also gave a relative viability ([12]; first compound 0.8 µM) of 0.776, a relative viability ([12]; first compound 2.53 µM) of 0.872 and a relative viability ([13]; first compound 0.08 µM) of 1.01. For the same molecule, the relative viability ([13]; first compound 0.253 µM) was 0.9, the relative viability ([13]; first compound 0.8 µM) was 0.694 and the relative viability ([13]; first compound 2.53 µM) was 0.558. It also gave a relative viability ([14]; first compound 0.08 µM) of 0.957, a relative viability ([14]; first compound 0.253 µM) of 0.756 and a relative viability ([14]; first compound 0.8 µM) of 0.823. The relative viability ([14]; first compound 2.53 µM) was 0.937, the relative viability ([15]; first compound 0.08 µM) was 1.23 and the relative viability ([15]; first compound 0.253 µM) was 0.904. For the same molecule, the relative viability ([15]; first compound 0.8 µM) was 0.911, the relative viability ([15]; first compound 2.53 µM) was 0.781 and the relative viability ([16]; first compound 0.08 µM) was 0.977. For the same molecule, the relative viability ([16]; first compound 0.253 µM) was 0.933, the relative viability ([16]; first compound 0.8 µM) was 0.997 and the relative viability ([16]; first compound 2.53 µM) was 1.03. The relative viability ([17]; first compound 0.08 µM) was 0.962, the relative viability ([17]; first compound 0.253 µM) was 0.823 and the relative viability ([17]; first compound 0.8 µM) was 0.93. For the same molecule, the relative viability ([17]; first compound 2.53 µM) was 0.891, the relative viability ([18]; first compound 0.08 µM) was 1.19 and the relative viability ([18]; first compound 0.253 µM) was 0.838. It also gave a relative viability ([18]; first compound 0.8 µM) of 1.02, a relative viability ([18]; first compound 2.53 µM) of 0.936 and a relative viability ([19]; first compound 0.08 µM) of 0.523. The relative viability ([19]; first compound 0.253 µM) was 0.452, the relative viability ([19]; first compound 0.8 µM) was 0.449 and the relative viability ([19]; first compound 2.53 µM) was 0.54. It also gave a relative viability ([20]; first compound 0.08 µM) of 1.12, a relative viability ([20]; first compound 0.253 µM) of 0.858 and a relative viability ([20]; first compound 0.8 µM) of 1.11. For the same molecule, the relative viability ([20]; first compound 2.53 µM) was 1.27, the relative viability ([21]; first compound 0.08 µM) was 0.352 and the relative viability ([21]; first compound 0.253 µM) was 0.29. For the same molecule, the relative viability ([21]; first compound 0.8 µM) was 0.277, the relative viability ([21]; first compound 2.53 µM) was 0.38 and the relative viability ([22]; first compound 0.08 µM) was 0.498. The relative viability ([22]; first compound 0.253 µM) was 0.449, the relative viability ([22]; first compound 0.8 µM) was 0.419 and the relative viability ([22]; first compound 2.53 µM) was 0.474. For the same molecule, the relative viability ([23]; first compound 0.08 µM) was 0.87, the relative viability ([23]; first compound 0.253 µM) was 0.96 and the relative viability ([23]; first compound 0.8 µM) was 0.999. For the same molecule, the relative viability ([23]; first compound 2.53 µM) was 1.11.
